Test [1] concerns HT-29 (colorectal carcinoma, B-RafV600E) cells. Put plainly: Cell proliferation (Alamar Blue) assay, HT-29. It counts as cell-based, human. Here is the method:
(§1) Cell Proliferation (Alamar Blue) Assay
(§2) HT-29 (colorectal carcinoma, B-RafV600E), HCT116 (colorectal carcinoma, K Ras G13D), A375 (melanoma, B-RafV600E) and SK-Mel2 (melanoma, NRAS Q61R) cells (obtained from ATCC, USA) were seeded (5000 cells/well) in 96-well tissue culture plate and incubated at 37° C./5% CO2 for 16-24 hours. The cells were then treated with compounds, at concentrations typically from 0.0005 to 10 uM prepared in 3-fold serial dilutions. The plates were then incubated for 72 h at 37° C./5% CO2 in a moist environment. Then Alamar Blue™ reagent (final concentration 1×) was added to each well and incubated for 1-3 h at 37° C./5% CO2. The plates were read on fluorescence reader at 540 nm excitation and 590 nm emission wavelengths. The IC50 values were subsequently determined using a sigmoidal dose-response curve (variable slope) using GraphPad Prism® 5 software.

Test [2] deals with HCT116 (colorectal carcinoma, K Ras G13D) cells. Nature of the test: Cell proliferation (Alamar Blue) assay, HCT116. It counts as cell-based, human. Here is the method: as §1, §2
(Alamar Blue is a resazurin reagent that responds to reducing activity.)

The mark [3] stands for this setting: Homo sapiens, HT-29, HT29 cells.
Setting [4] is: Homo sapiens, HCT-116, HCT116 cells.

The record followed here is US11925629B2, “Heterocyclic inhibitors of ERK1 and ERK2 and their use in the treatment of cancer” (Asana Biosciences, LLC, priority 2015, dated 2024).

As a reminder, the IC50 is the concentration needed to halve the response being measured.

Bounds are passed on as bounds.

On to `O=C(Nc1cnn(-c2nc(NC3CC3)ncc2F)c1)N[C@H](CO)c1cccc(Cl)c1` [Example 30, (S)-1-(1-(3-chlorophenyl)-2-hydroxy-ethyl)-3-(1-(2-(cyclo-propyl-amino)-5-fluoro-pyrimidin-4-yl)-1H-pyrazol-4-yl)urea], for which the IC50 in test [1] (setting [3]) and in test [2] (setting [4]) was above 2500 nM each time.
As for `Cc1cnc(Nc2ccc3c(c2)OCO3)nc1-n1cc(NC(=O)NC(CO)c2cccc(Cl)c2)cn1` (stereo not shown) [Example 37, 1-(1-(2-(benzo[d][1,3]dioxol-5-ylamino)-5-methyl-pyrimidin-4-yl)-1H-pyrazol-4-yl)-3-(1-(3-chlorophenyl)-2-hydroxy-ethyl)urea], the IC50 in test [1] (setting [3]) is above 2500 nM; in test [2] (setting [4]), 500 to 2500 nM.
With `Cc1cnc(NC2CC2)nc1-n1cc(C(=O)NC(CO)c2cccc(Cl)c2)cn1` (stereo not shown) [Example 40, N-(1-(3-chlorophenyl)-2-hydroxy-ethyl)-1-(2-(cyclopropyl-amino)-5-methyl-pyrimidin-4-yl)-1H-pyrazole-4-carboxamide], the IC50 in test [1] (setting [3]) and in test [2] (setting [4]) was above 2500 nM each time.
As to `Cc1cnc(Nc2ccc3c(c2)OCO3)nc1-n1cc(C(=O)NC(CO)c2cccc(Cl)c2)cn1` (stereo not shown) [Example 41, 1-(2-(benzo[d][1,3]dioxol-5-ylamino)-5-methyl-pyrimidin-4-yl)-N-(1-(3-chloro-phenyl)-2-hydroxy-ethyl)-1H-pyrazole-4-carboxamide], the concentration for half-maximal inhibition (IC50) in test [1] (setting [3]) and in test [2] (setting [4]) was above 2500 nM in each case.
As to `Cc1cnc(Nc2ccc3c(c2)OCO3)nc1-n1cc(NC(=O)N[C@H](CO)c2cccc(Cl)c2)cn1` [Example 44, (S)-1-(1-(2-(benzo[d][1,3]dioxol-5-ylamino)-5-methyl-pyrimidin-4-yl)-1H-pyrazol-4-yl)-3-(1-(3-chloro-phenyl)-2-hydroxy-ethyl)urea], the 50% inhibitory concentration (IC50) in test [1] (setting [3]) and in test [2] (setting [4]) was above 2500 nM throughout.
In the case of `Cc1cnc(Nc2ccc(F)cc2Cl)nc1-n1cc(C(=O)NC(CO)c2cccc(Cl)c2)cn1` (stereo not shown) [Example 45, 1-(2-((2-chloro-4-fluorophenyl)amino)-5-methyl-pyrimidin-4-yl)-N-(1-(3-chlorophenyl)-2-hydroxy-ethyl)-1H-pyrazole-4-carboxamide], the IC50 in test [1] (setting [3]) and in test [2] (setting [4]) was above 2500 nM throughout.
In the case of `O=C(NC(CO)c1cccc(Cl)c1)c1ccn(-c2ccnc(Nc3ccccc3)c2)c1` (stereo not shown) [Example 46, N-(1-(3-chloro-phenyl)-2-hydroxy-ethyl)-1-(2-(phenyl-amino)pyridin-4-yl)-1H-pyrrole-3-carboxamide], the 50% inhibitory concentration (IC50) in test [1] (setting [3]) and in test [2] (setting [4]) was above 2500 nM throughout.
With `O=C(Nc1cnn(-c2ccnc(Nc3ccccc3)c2)c1)N[C@@H](CO)c1cccc(Cl)c1` [Example 49, (R)-1-(1-(3-chloro-phenyl)-2-hydroxy-ethyl)-3-(1-(2-(phenylamino)pyridin-4-yl)-1H-pyrazol-4-yl)urea], the IC50 in test [1] (setting [3]) and in test [2] (setting [4]) was above 2500 nM each time.
Regarding `Cc1cnc(Nc2ccc3c(c2)OCO3)nc1-n1cc(C(=O)N[C@H](CO)c2cccc(Cl)c2)cn1` [Example 50, (S)-1-(2-(benzo[d][1,3]dioxol-5-ylamino)-5-methyl-pyrimidin-4-yl)-N-(1-(3-chloro-phenyl)-2-hydroxy-ethyl)-1H-pyrazole-4-carboxamide], the IC50 in test [1] (setting [3]) and in test [2] (setting [4]) was above 2500 nM in each case.
With `Cc1cnc(Nc2ccc3c(c2)OCO3)nc1-n1cc(NC(=O)N[C@@H](CO)c2cccc(Cl)c2)cn1` [Example 51, (R)-1-(1-(2-(benzo[d][1,3]dioxol-5-ylamino)-5-methyl-pyrimidin-4-yl)-1H-pyrazol-4-yl)-3-(1-(3-chloro-phenyl)-2-hydroxy-ethyl)urea], the IC50 in test [1] (setting [3]) and in test [2] (setting [4]) was above 2500 nM each time.
In the case of `Cc1cnc(Nc2ccc(F)cc2Cl)nc1-n1cc(C(=O)NC(CN)c2ccccc2)cn1` (stereo not shown) [Example 54, N-(2-amino-1-phenylethyl)-1-(2-((2-chloro-4-fluoro-phenyl)amino)-5-methyl-pyrimidin-4-yl)-1H-pyrazole-4-carboxamide], the IC50 in test [1] (setting [3]) and in test [2] (setting [4]) was above 2500 nM throughout.
As to `Cc1cnc(Nc2ccc(F)cc2Cl)nc1-n1ccc(C(=O)N[C@H](CO)c2cccc(Cl)c2)c1` [Example 57, (S)-1-(2-((2-chloro-4-fluorophenyl)-amino)-5-methyl-pyrimidin-4-yl)-N-(1-(3-chlorophenyl)-2-hydroxy-ethyl)-1H-pyrrole-3-carboxamide], the half-maximal inhibitory concentration (IC50) in test [1] (HT29 cells) and in test [2] (HCT116 cells) was above 2500 nM each time.
As for `Cc1cnc(Nc2ccc(F)cc2Cl)cc1-n1ccc(C(=O)NC(CO)c2ccccc2)c1` (stereo not shown) [Example 78, 1-(2-((2-chloro-4-fluorophenyl)amino)-5-methyl-pyridin-4-yl)-N-(2-hydroxy-1-phenylethyl)-1H-pyrrole-3-carboxamide], the IC50 in test [1] (setting [3]) and in test [2] (setting [4]) was above 2500 nM in each case.
With `Cc1cnc(Nc2ccc3occc3c2)cc1-n1ccc(C(=O)NC(CO)c2ccccc2)c1` (stereo not shown) [Example 79, 1-(2-(benzo-furan-5-ylamino)-5-methyl-pyridin-4-yl)-N-(2-hydroxy-1-phenylethyl)-1H-pyrrole-3-carboxamide], the IC50 in test [1] (setting [3]) and in test [2] (setting [4]) was above 2500 nM each time.
With `Cc1cnc(Nc2cccnc2)cc1-n1ccc(C(=O)NC(CO)c2ccccc2)c1` (stereo not shown) [Example 81, N-(2-hydroxy-1-phenylethyl)-1-(5-methyl-2-(pyridin-3-ylamino)pyridin-4-yl)-1H-pyrrole-3-carboxamide], the IC50 in test [1] (setting [3]) and in test [2] (setting [4]) was above 2500 nM throughout.
`O=C(NC(CO)c1ccccc1)c1ccn(-c2ccnc(Nc3ccc(F)cc3Cl)c2)c1` (stereo not shown) [Example 82, 1-(2-((2-chloro-4-fluorophenyl)amino)pyridin-4-yl)-N-(2-hydroxy-1-phenylethyl)-1H-pyrrole-3-carboxamide]: the 50% inhibitory concentration (IC50) in test [1] (setting [3]) and in test [2] (setting [4]) was above 2500 nM throughout.
`Cc1cnc(Nc2ccc(N3CCNCC3)cc2)cc1-n1ccc(C(=O)NC(CO)c2ccccc2)c1` (stereo not shown) [Example 83, N-(2-hydroxy-1-phenylethyl)-1-(5-methyl-2-((4-(piperazin-1-yl)-phenyl)amino)-pyridin-4-yl)-1H-pyrrole-3-carboxamide]: the half-inhibitory concentration (IC50) in test [1] (setting [3]) and in test [2] (setting [4]) was above 2500 nM throughout.
For the compound `O=C(NC(CO)c1ccccc1)c1ccn(-c2ccnc(Nc3ccc(F)cc3)c2)c1` (stereo not shown) [Example 84, 1-(2-((4-fluoro-phenyl)amino)pyridin-4-yl)-N-(2-hydroxy-1-phenyl-ethyl)-1H-pyrrole-3-carboxamide], the IC50 in test [1] (setting [3]) and in test [2] (setting [4]) was above 2500 nM each time.
With `Cc1cnc(Nc2ccc(F)cc2Cl)cc1-n1cnc(C(=O)NC(CO)c2ccccc2)c1` (stereo not shown) [Example 85, 1-(2-((2-chloro-4-fluorophenyl)amino)-5-methyl-pyridin-4-yl)-N-(2-hydroxy-1-phenylethyl)-1H-imidazole-4-carboxamide], the IC50 in test [1] (setting [3]) and in test [2] (setting [4]) was above 2500 nM throughout.
For `Cc1cnc(Nc2ccc3c(c2)OCO3)cc1-n1cnc(C(=O)NC(CO)c2cccc(Cl)c2)c1` (stereo not shown) [Example 88, 1-(2-(benzo[d][1,3]dioxol-5-ylamino)-5-methyl-pyridin-4-yl)-N-(1-(3-chloro-phenyl)-2-hydroxy-ethyl)-1H-imidazole-4-carboxamide], the half-maximal inhibitory concentration (IC50) in test [1] (setting [3]) and in test [2] (setting [4]) was above 2500 nM in each case.
As for `Cc1cnc(Nc2ccccc2)cc1-n1cnc(C(=O)NC(CO)c2ccccc2)c1` (stereo not shown) [Example 89, N-(2-hydroxy-1-phenylethyl)-1-(5-methyl-2-(phenyl-amino)pyridin-4-yl)-1H-imidazole-4-carboxamide], the IC50 in test [1] (setting [3]) and in test [2] (setting [4]) was above 2500 nM in each case.
Regarding `Cc1cnc(Nc2ccc3c(c2)OC(F)(F)O3)cc1-n1cnc(C(=O)NC(CO)c2cccc(Cl)c2)c1` (stereo not shown) [Example 90, N-(1-(3-chlorophenyl)-2-hydroxy-ethyl)-1-(2-((2,2-difluoro-benzo[d][1,3]dioxol-5-yl)amino)-5-methyl-pyridin-4-yl)-1H-imidazole-4-carboxamide], the IC50 in test [1] (setting [3]) and in test [2] (setting [4]) was above 2500 nM each time.
Regarding `Cc1cnc(Nc2ccc3c(c2)OC(F)(F)O3)cc1-n1ccc(C(=O)NC(CO)c2cccc(Cl)c2)c1` (stereo not shown) [Example 92, N-(1-(3-chlorophenyl)-2-hydroxy-ethyl)-1-(2-((2,2-difluoro-benzo[d][1,3]dioxol-5-yl)amino)-5-methyl-pyridin-4-yl)-1H-pyrrole-3-carboxamide], the half-inhibitory concentration (IC50) was 500 to 2500 nM in test [1] (setting [3]) and above 2500 nM in test [2] (setting [4]).
For `Cc1cnc(Nc2ccc(F)cc2Cl)nc1-n1ccc(C(=O)N[C@@H](CN(C)C)c2ccccc2)c1` [Example 97, (R)-1-(2-((2-chloro-4-fluorophenyl)amino)-5-methyl-pyrimidin-4-yl)-N-(2-(dimethyl-amino)-1-phenylethyl)-1H-pyrrole-3-carboxamide] the same measures were above 2500 nM and above 2500 nM.
On the same counts, the results for `Cc1cnc(Nc2ccc3c(c2)OC(F)(F)O3)cc1-n1cnc(C(=O)NC(CN)Cc2ccccc2)c1` (stereo not shown) [Example 99, N-(1-amino-3-phenyl-propan-2-yl)-1-(2-((2,2-difluoro-benzo[d][1,3]dioxol-5-yl)amino)-5-methyl-pyridin-4-yl)-1H-imidazole-4-carboxamide] are above 2500 nM and above 2500 nM.
On the same counts, the results for `Cc1cnc(Nc2cc3c(cc2Cl)OCO3)nc1-n1ccc(C(=O)NC(CO)c2cccc(Cl)c2)c1` (stereo not shown) [Example 101, 1-(2-((6-chloro-benzo[d][1,3]dioxol-5-yl)amino)-5-methyl-pyrimidin-4-yl)-N-(1-(3-chlorophenyl)-2-hydroxy-ethyl)-1H-pyrrole-3-carboxamide] are 500 to 2500 nM and above 2500 nM.
